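Test compounds were applied to cells in 96-well plates for 48 hours at 5 doses. The concentration for full growth arrest is given as TGI.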
How the values were obtained:
Assay in all cases: NCI tumour cell line growth inhibition, 48 h
786-0 renal = tested on: 786-0 renal
A549 NSCLC = tested on: A549 NSCLC
CAKI-1 renal = tested on: CAKI-1 renal
COLO 205 colon = tested on: COLO 205 colon
DLD-1 colon = tested on: DLD-1 colon
DMS 114 small cell lung = tested on: DMS 114 small cell lung
EKVX NSCLC = tested on: EKVX NSCLC
HCT-116 colon = tested on: HCT-116 colon
HL-60(TB) leukemia = tested on: HL-60(TB) leukemia
HOP-18 NSCLC = tested on: HOP-18 NSCLC
HOP-62 NSCLC = tested on: HOP-62 NSCLC
HOP-92 NSCLC = tested on: HOP-92 NSCLC
HT29 colon = tested on: HT29 colon
IGROV1 ovarian = tested on: IGROV1 ovarian
K-562 leukemia = tested on: K-562 leukemia
KM12 colon = tested on: KM12 colon
KM20L2 colon = tested on: KM20L2 colon
LXFL 529 NSCLC = tested on: LXFL 529 NSCLC
M14 melanoma = tested on: M14 melanoma
M19-MEL melanoma = tested on: M19-MEL melanoma
MALME-3M melanoma = tested on: MALME-3M melanoma
MOLT-4 leukemia = tested on: MOLT-4 leukemia
NCI-H23 lung = tested on: NCI-H23 lung
NCI-H522 lung = tested on: NCI-H522 lung
OVCAR-3 ovarian = tested on: OVCAR-3 ovarian
OVCAR-4 ovarian = tested on: OVCAR-4 ovarian
OVCAR-5 ovarian = tested on: OVCAR-5 ovarian
OVCAR-8 ovarian = tested on: OVCAR-8 ovarian
RPMI-8226 leukemia = tested on: RPMI-8226 leukemia
RXF 393 renal = tested on: RXF 393 renal
SF-268 CNS = tested on: SF-268 CNS
SF-295 CNS = tested on: SF-295 CNS
SF-539 CNS = tested on: SF-539 CNS
SK-MEL-28 melanoma = tested on: SK-MEL-28 melanoma
SK-MEL-5 melanoma = tested on: SK-MEL-5 melanoma
SK-OV-3 ovarian = tested on: SK-OV-3 ovarian
SN12C renal = tested on: SN12C renal
SNB-19 CNS = tested on: SNB-19 CNS
SNB-75 CNS = tested on: SNB-75 CNS
SR leukemia = tested on: SR leukemia
SW-620 colon = tested on: SW-620 colon
TK-10 renal = tested on: TK-10 renal
U251 CNS = tested on: U251 CNS
UACC-62 melanoma = tested on: UACC-62 melanoma
UO-31 renal = tested on: UO-31 renal
A498 renal = tested on: A498 renal
ACHN renal = tested on: ACHN renal
CCRF-CEM leukemia = tested on: CCRF-CEM leukemia
DMS 273 small cell lung = tested on: DMS 273 small cell lung
HCC-2998 colon = tested on: HCC-2998 colon
HCT-15 colon = tested on: HCT-15 colon
LOX IMVI melanoma = tested on: LOX IMVI melanoma
NCI-H226 lung = tested on: NCI-H226 lung
NCI-H460 lung = tested on: NCI-H460 lung
SK-MEL-2 melanoma = tested on: SK-MEL-2 melanoma
SNB-78 CNS = tested on: SNB-78 CNS
UACC-257 melanoma = tested on: UACC-257 melanoma

Measured: TGI

N=c1nnc(=O)c2c(s1)-n1ncc(C(=O)O)c1NN2
not listed: A498 renal | ACHN renal | CCRF-CEM leukemia | DMS 273 small cell lung | HCC-2998 colon | HCT-15 colon | LOX IMVI melanoma | NCI-H226 lung | NCI-H460 lung | SK-MEL-2 melanoma | SNB-78 CNS | UACC-257 melanoma
> 100 µM: all other assays above

COc1c(C(=O)O)oc2c(OC)cccc12
not listed: CAKI-1 renal | DLD-1 colon | KM20L2 colon | RXF 393 renal
> 100 µM: all other assays above

Source: PubChem BioAssay (NCI)
